Reference: patent publication US7511145B2 (Genelabs Technologies, Inc., priority 2003, dated 2009)

Target: T1, HCV-NS5b (Hepatitis C virus genotype 1b, UniProt Q9WMX2)
T1 construct: (His)6 (C); made in house; host or cells: XL-1 cells (E. coli), IPTG-inducible plasmid, nickel-NTA purification
Assay: HCV-NS5b enzyme assay (incorporation of radiolabeled UTP)
Format: biochemical
Conditions: for inhibition at 33 µM: enzyme inhibition at compound concentration of 33 uM; for inhibition at 100 µM: read-out: % inh@100, enzyme inhibition at compound concentration of 100 uM
Text: The coding sequence of NS5b protein was cloned by PCR from pFKI389luc/NS3-3′/ET as described by Lohmann, V., et al. (1999) Science 285, 110-113 using the following primers: […]
The cloned fragment was missing the C terminus 21 amino acid residues. The cloned fragment was inserted into an IPTG-inducible expression plasmid that provided an epitope tag (His)6 at the carboxy terminus of the protein.
The recombinant enzyme was expressed in XL-1 cells and after induction of expression, the protein was purified using affinity chromatography on a nickel-NTA column. Storage condition was 10 mM Tris-HCl pH 7.5, 50 mM NaCl, 0.1 mM EDTA, 1 mM DTT, 20% glycerol at −20° C.
The polymerase activity was assayed by measuring incorporation of radiolabeled UTP into a RNA product using a biotinylated, heteropolymeric template, which included a portion of the HCV genome. Typically, the assay mixture (50 μL) contained 10 mM Tris-HCl (pH 7.5), 5 mM MgCl2, 0.2 mM EDTA, 10 mM KCl, 1 unit/μL RNAsin, 1 mM DTT, 10 μM each of NTP, including [^3H]-UTP, and 10 ng/μL heteropolymeric template. Test compounds were initially dissolved in 100% DMSO and further diluted in aqueous buffer containing 5% DMSO. Typically, compounds were tested at concentrations between 1 nM and 100 μM. Reactions were started with addition of enzyme and allowed to continue at 37° C. for 2 hours. Reactions were quenched with 8 μL of 100 mM EDTA and reaction mixtures (30 μL) were transferred to streptavidin-coated scintillation proximity microtiter plates (FlashPlates) and incubated at 4° C. overnight. Incorporation of radioactivity was determined by scintillation counting.
Shown in Table IX below are the values for enzyme inhibition measured at compound concentrations of 100 and 33 uM, (% inh@[…] and % inh@33, respectively). The percent inhibition values are calculated from the differential incorporation of radioactivity compared to a control reaction without compound: % inhibition=100−[(CountsINH−CountsBKG)/CountsCTRL−CountsBKG)×100 where CountsINH is the signal of the testwell with inhibitor, CountsBKG is the background signal and CountsCTRL is the signal of a testwell without inhibitor.

Structure (SMILES): O=C(O)CC[C@H](NC(=O)c1ccc2c(c1)nc(-c1ccc3nc(-c4ccccc4)cnc3c1)n2C1CCCCC1)C(=O)O [Compound 245, 2-{[1-Cyclohexyl-2-(2-phenyl-quinoxalin-6-yl)-1H-benzoimidazole-5-carbonyl]-amino}-pentanedioic acid]
- inhibition at 33 µM: 73.2%
- inhibition at 100 µM: 97.4%

Structure (SMILES): O=C(N[C@@H](Cc1ccccc1)C(=O)O)c1ccc2c(c1)nc(-c1ccc3nc(-c4ccccc4)cnc3c1)n2C1CCCCC1 [Compound 246, 2-{[1-Cyclohexyl-2-(2-phenyl-quinoxalin-6-yl)-1H-benzoimidazole-5-carbonyl]-amino}-3-phenyl-propionic acid]
- inhibition at 33 µM: 95.9%
- inhibition at 100 µM: 96.4%

Structure (SMILES): O=C(N[C@@H](Cc1c[nH]cn1)C(=O)O)c1ccc2c(c1)nc(-c1ccc3nc(-c4ccccc4)cnc3c1)n2C1CCCCC1 [Compound 247, 2-{[1-Cyclohexyl-2-(2-phenyl-quinoxalin-6-yl)-1H-benzoimidazole-5-carbonyl]-amino}-3-(1H-imidazol-4-yl)-propionic acid]
- inhibition at 33 µM: 66.8%
- inhibition at 100 µM: 94.2%

Structure (SMILES): O=C(O)[C@@H]1C[C@@H](O)CN1C(=O)c1ccc2c(c1)nc(-c1ccc3nc(-c4ccccc4)cnc3c1)n2C1CCCCC1 [Compound 248, 1-[1-Cyclohexyl-2-(2-phenyl-quinoxalin-6-yl)-1H-benzoimidazole-5-carbonyl]-4-hydroxy-pyrrolidine-2-carboxylic acid]
- inhibition at 33 µM: 47.4%
- inhibition at 100 µM: 86.8%

Structure (SMILES): CC[C@H](C)[C@H](NC(=O)c1ccc2c(c1)nc(-c1ccc3nc(-c4ccccc4)cnc3c1)n2C1CCCCC1)C(=O)O [Compound 249, 2-{[1-Cyclohexyl-2-(2-phenyl-quinoxalin-6-yl)-1H-benzoimidazole-5-carbonyl]-amino}-3-methyl-pentanoic acid]
- inhibition at 33 µM: 94.5%
- inhibition at 100 µM: 97.2%

Structure (SMILES): c1ccc(-c2cnc3cc(-c4nc5cc(-c6nn[nH]n6)ccc5n4C4CCCCC4)ccc3n2)cc1 [Compound 258, 6-[1-cyclohexyl-5-(1H-tetrazol-5-yl)-1H-benzimidazol-2-yl]-2-phenylquinoxaline]
- inhibition at 33 µM: 97%
- inhibition at 100 µM: 98%

Structure (SMILES): O=C(c1ccc(-c2ccc(Cl)cc2)c(-c2ccc3cc(-c4nc5cc(-c6nnn[nH]6)ccc5n4C4CCCCC4)ccc3n2)c1)N1CCCC1 [Compound 259, (4′-chloro-2-{6-[1-cyclohexyl-5-(1H-tetrazol-5-yl)-1H-benzoimidazol-2-yl]-quinolin-2-yl}-biphenyl-4-yl)-pyrrolidin-1-yl-methanone]
- inhibition at 33 µM: 99.7%
- inhibition at 100 µM: 99.4%

Structure (SMILES): C[C@H](NC(=O)c1ccc2c(c1)nc(-c1ccc3nc(-c4ccccc4)cnc3c1)n2C1CCCCC1)C(=O)O [Compound 310, 2-[(2-(2-phenyl-quinoxalin-6-yl)-1-cyclohexyl-1H-benzoimidazole-5-carbonyl)-amino]-propionic acid]
- inhibition at 33 µM: 83.2%
- inhibition at 100 µM: 98.3%

Structure (SMILES): O=C(O)CNC(=O)c1ccc2c(c1)nc(-c1ccc3nc(-c4ccccc4)cnc3c1)n2C1CCCCC1 [Compound 311, {[1-Cyclohexyl-2-(2-phenyl-quinoxalin-6-yl)-1H-benzoimidazole-5-carbonyl]-amino}-acetic acid]
- inhibition at 33 µM: 83%
- inhibition at 100 µM: 93.3%

Structure (SMILES): O=C(O)c1ccc2c(c1)nc(-c1ccc3cc(-c4ccccc4)cnc3c1)n2C1CCCCC1 [Compound 351, 1-cyclohexyl-2-(3-phenyl-quinolin-7-yl)-1H-benzoimidazole-5-carboxylic acid]
- inhibition at 33 µM: 94.9%
- inhibition at 100 µM: 98.1%

Structure (SMILES): O=C(O)c1ccc2c(c1)nc(-c1ccc3nc(-c4ccccc4Br)ccc3c1)n2C1CCCCC1 [Compound 352, 2-[2-(2-bromo-phenyl)-quinolin-6-yl]-1-cyclohexyl-1H-benzoimidazole-5-carboxylic acid]
- inhibition at 33 µM: 94.2%
- inhibition at 100 µM: 98.8%

Structure (SMILES): O=C(O)c1ccc2[nH]c(-c3ccc4nc(-c5ccccc5-c5ccc(Cl)cc5)ccc4c3)nc2c1 [Compound 353, 2-[2-(4′-Chloro-biphen-2-yl)-quinolin-6-yl]-1H-benzoimidazole-5-carboxylic acid]
- inhibition at 33 µM: 67.3%
- inhibition at 100 µM: 67.5%

Structure (SMILES): O=C(O)c1ccc2c(c1)nc(-c1ccc3nc(-c4cc(Br)ccc4O)ccc3c1)n2C1CCCCC1 [Compound 354, 2-[2-(5-Bromo-2-hydroxy-phenyl)-quinolin-6-yl]-1-cyclohexyl-1H-benzoimidazole-5-carboxylic acid]
- inhibition at 33 µM: 98%
- inhibition at 100 µM: 101%

Structure (SMILES): O=C(O)c1ccc2c(c1)nc(-c1ccc3nc(-c4cccnc4)ccc3c1)n2C1CCCCC1 [Compound 355, 1-cyclohexyl-2-(2-pyridin-3-yl-quinolin-6-yl)-1H-benzoimidazole-5-carboxylic acid]
- inhibition at 33 µM: 72.3%
- inhibition at 100 µM: 89.3%

Structure (SMILES): COc1ccc(-c2ccc(Cl)cc2)c(-c2ccc3cc(-c4nc5cc(C(=O)O)ccc5n4C4CCCCC4)ccc3n2)c1 [Compound 356, 2-[2-(4′-Chloro-4-methoxy-biphen-2-yl)-quinolin-6-yl]-1-cyclohexyl-1H-benzoimidazole-5-carboxylic acid]
- inhibition at 33 µM: 101%
- inhibition at 100 µM: 100%

Structure (SMILES): O=C(O)c1ccc2c(c1)nc(-c1ccc3nc(-c4cccc5ccccc45)ccc3c1)n2C1CCCCC1 [Compound 357, 1-cyclohexyl-2-(2-naphthalen-1-yl-quinolin-6-yl)-1H-benzoimidazole-5-carboxylic acid]
- inhibition at 33 µM: 98.8%
- inhibition at 100 µM: 101%

Structure (SMILES): Nc1ccc(-c2ccc3cc(-c4nc5cc(C(=O)O)ccc5n4C4CCCCC4)ccc3n2)cc1 [Compound 358, 2-[2-(4-amino-phenyl)-quinolin-6-yl]-1-cyclohexyl-1H-benzoimidazole-5-carboxylic acid]
- inhibition at 33 µM: 85.1%
- inhibition at 100 µM: 95.3%

Structure (SMILES): O=C(O)COc1cccc(-c2ccc3cc(-c4nc5cc(C(=O)O)ccc5n4C4CCCCC4)ccc3n2)c1 [Compound 359, 2-[2-(3-Carboxymethoxy-phenyl)-quinolin-6-yl]-1-cyclohexyl-1H-benzoimidazole-5-carboxylic acid]
- inhibition at 33 µM: 97.3%
- inhibition at 100 µM: 99.6%

Structure (SMILES): O=C(O)c1ccc2c(c1)nc(-c1ccc3nc(-c4cc(OCC(=O)N5CCCC5)ccc4-c4ccccc4)ccc3c1)n2C1CCCCC1 [Compound 360, 1-cyclohexyl-2-{2-[4-(2-oxo-2-pyrrolidin-1-yl-ethoxy)-biphen-2-yl]-quinolin-6-yl}-1H-benzoimidazole-5-carboxylic acid]
- inhibition at 33 µM: 97.6%
- inhibition at 100 µM: 97.9%

Structure (SMILES): NC(=O)CNC(=O)c1ccc(-c2ccc(Cl)cc2)c(-c2ccc3cc(-c4nc5cc(C(=O)O)ccc5n4C4CCCCC4)ccc3n2)c1 [Compound 361, 2-{2-[4-(Carbamoylmethyl-carbamoyl)-4′-chloro-biphen-2-yl]-quinolin-6-yl}-1-cyclohexyl-1H-benzoimidazole-5-carboxylic acid]
- inhibition at 33 µM: 100%
- inhibition at 100 µM: 98.7%

Structure (SMILES): CNC(=O)c1ccc(-c2ccccc2)c(-c2ccc3cc(-c4nc5cc(C(=O)O)ccc5n4C4CCCCC4)ccc3n2)c1 [Compound 362, 1-cyclohexyl-2-[2-(4-methylcarbamoyl-biphen-2-yl)-quinolin-6-yl]-1H-benzoimidazole-5-carboxylic acid]
- inhibition at 33 µM: 101%
- inhibition at 100 µM: 98.4%

Structure (SMILES): Nc1c(Cl)cc(-c2ccc3cc(-c4nc5cc(C(=O)O)ccc5n4C4CCCCC4)ccc3n2)cc1Cl [Compound 363, 2-[2-(4-amino-3,5-dichloro-phenyl)-quinolin-6-yl]-1-cyclohexyl-1H-benzoimidazole-5-carboxylic acid]
- inhibition at 33 µM: 98.4%
- inhibition at 100 µM: 101%

Structure (SMILES): O=C(O)c1ccc2c(c1)nc(-c1ccc3nc(-c4ccc(O)cc4O)ccc3c1)n2C1CCCCC1 [Compound 364, 1-cyclohexyl-2-[2-(2,4-dihydroxy-phenyl)-quinolin-6-yl]-1H-benzoimidazole-5-carboxylic acid]
- inhibition at 33 µM: 98.6%
- inhibition at 100 µM: 101%

Structure (SMILES): COc1ccc(-c2ccc(C#N)cc2)c(-c2ccc3cc(-c4nc5cc(C(=O)O)ccc5n4C4CCCCC4)ccc3n2)c1 [Compound 365, 2-[2-(4′-cyano-4-methoxy-biphen-2-yl)-quinolin-6-yl]-1-cyclohexyl-1H-benzoimidazole-5-carboxylic acid]
- inhibition at 33 µM: 102%
- inhibition at 100 µM: 103%

Structure (SMILES): COc1ccc(-c2ccc(F)c(Cl)c2)c(-c2ccc3cc(-c4nc5cc(C(=O)O)ccc5n4C4CCCCC4)ccc3n2)c1 [Compound 366, 2-[2-(3′-chloro-4′-fluoro-4-methoxy-biphen-2-yl)-quinolin-6-yl]-1-cyclohexyl-1H-benzoimidazole-5-carboxylic acid]
- inhibition at 33 µM: 97.6%
- inhibition at 100 µM: 99.4%
